# Biological target: T1, KATP channels (Homo sapiens, UniProt O60706+Q14654)
# T1 construct: TE671 human medulloblastoma cells were obtained from ATCC; host or cells: TE671 human medulloblastoma cells
# Test: Potassium Channel Assay (FLIPR membrane potential, TE671 cells)
# Format: cell-based
# Settings: TE671 human medulloblastoma cells, Membrane Potential Assay Dye, room temperature, hyperpolarization from KATP channel opening seen as decrease in fluorescent intensity
# Protocol: TE671 human medulloblastoma cells were obtained from ATCC and grown in Dulbecco's modified Eagle's medium (DMEM) supplemented with 10% fetal bovine serum, 100 U/ml penicillin and 100 U/ml streptomycine.
# The day before testing, the cells were plated in black 96-well plates at 50K/well. On the day of testing, the growth media was removed, then 100 μl of FLIPR buffer (20 mM HEPES, 120 mM NaCl, 2 mM KCl, 2 mM CaCl2, 1 mM MgCl2, 5 mM Glucose) and 100 μl of Membrane Potential Assay Dye (Molecular Devices) dissolved in FLIPR buffer were added to each well. The cells were incubated at room temperature for 15 to 30 min.
# The effect of test compounds on KATP channels were evaluated on a fluorometric imaging plate reader (FLIPR, Molecular Devices) at room temperature. After a baseline period, 50 μl of 5× stock solution of test compound prepared in FLIPR buffer was added and fluorescent change was monitored for 3 minutes. After this reading, glyburide, a KATP channel blocker, was added to a final concentration of 5 μM to check the specificity of the test compound as a KATP channel openers. Hyperpolarization resulting from KATP channel opening was observed as a decrease in fluorescent intensity.
# T1 sequence (O60706 1-1549 isoform O60706-2): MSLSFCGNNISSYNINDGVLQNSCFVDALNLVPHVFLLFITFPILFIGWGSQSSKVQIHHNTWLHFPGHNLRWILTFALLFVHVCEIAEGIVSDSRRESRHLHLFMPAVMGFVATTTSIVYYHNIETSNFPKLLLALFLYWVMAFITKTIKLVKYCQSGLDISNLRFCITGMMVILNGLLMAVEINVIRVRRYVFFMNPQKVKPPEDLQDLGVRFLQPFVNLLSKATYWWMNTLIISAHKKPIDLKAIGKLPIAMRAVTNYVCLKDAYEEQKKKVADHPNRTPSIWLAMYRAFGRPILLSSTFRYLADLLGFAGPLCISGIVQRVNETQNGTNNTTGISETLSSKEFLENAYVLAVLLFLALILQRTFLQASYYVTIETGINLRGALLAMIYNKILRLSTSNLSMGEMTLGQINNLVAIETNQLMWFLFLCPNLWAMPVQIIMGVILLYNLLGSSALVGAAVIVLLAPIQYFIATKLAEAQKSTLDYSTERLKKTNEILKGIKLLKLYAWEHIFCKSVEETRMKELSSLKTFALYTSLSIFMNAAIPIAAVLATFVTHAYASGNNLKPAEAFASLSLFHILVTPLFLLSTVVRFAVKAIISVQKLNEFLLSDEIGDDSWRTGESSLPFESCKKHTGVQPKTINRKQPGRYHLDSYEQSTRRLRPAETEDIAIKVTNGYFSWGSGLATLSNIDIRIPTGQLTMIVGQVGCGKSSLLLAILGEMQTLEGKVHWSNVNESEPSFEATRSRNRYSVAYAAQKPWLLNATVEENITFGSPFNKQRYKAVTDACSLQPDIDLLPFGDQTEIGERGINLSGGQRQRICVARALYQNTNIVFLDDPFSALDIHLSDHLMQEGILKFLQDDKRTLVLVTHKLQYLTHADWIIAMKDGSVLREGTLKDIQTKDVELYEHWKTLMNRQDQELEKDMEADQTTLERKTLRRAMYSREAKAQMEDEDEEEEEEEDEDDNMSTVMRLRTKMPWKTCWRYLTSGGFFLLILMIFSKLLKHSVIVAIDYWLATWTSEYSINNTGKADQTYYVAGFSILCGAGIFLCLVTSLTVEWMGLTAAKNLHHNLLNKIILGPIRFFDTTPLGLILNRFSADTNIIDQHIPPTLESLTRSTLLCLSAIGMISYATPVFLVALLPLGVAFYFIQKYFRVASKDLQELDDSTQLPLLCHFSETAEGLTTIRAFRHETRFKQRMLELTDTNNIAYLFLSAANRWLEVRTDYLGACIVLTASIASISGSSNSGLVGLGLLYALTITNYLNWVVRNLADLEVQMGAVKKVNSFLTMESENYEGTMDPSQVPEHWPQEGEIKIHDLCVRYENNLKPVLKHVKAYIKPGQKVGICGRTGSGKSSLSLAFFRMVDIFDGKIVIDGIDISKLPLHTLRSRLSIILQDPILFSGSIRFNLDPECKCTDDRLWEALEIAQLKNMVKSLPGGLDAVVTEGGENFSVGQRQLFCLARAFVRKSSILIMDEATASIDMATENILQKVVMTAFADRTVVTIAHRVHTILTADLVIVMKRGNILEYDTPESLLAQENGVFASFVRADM
# T1 sequence (Q14654 whole entry): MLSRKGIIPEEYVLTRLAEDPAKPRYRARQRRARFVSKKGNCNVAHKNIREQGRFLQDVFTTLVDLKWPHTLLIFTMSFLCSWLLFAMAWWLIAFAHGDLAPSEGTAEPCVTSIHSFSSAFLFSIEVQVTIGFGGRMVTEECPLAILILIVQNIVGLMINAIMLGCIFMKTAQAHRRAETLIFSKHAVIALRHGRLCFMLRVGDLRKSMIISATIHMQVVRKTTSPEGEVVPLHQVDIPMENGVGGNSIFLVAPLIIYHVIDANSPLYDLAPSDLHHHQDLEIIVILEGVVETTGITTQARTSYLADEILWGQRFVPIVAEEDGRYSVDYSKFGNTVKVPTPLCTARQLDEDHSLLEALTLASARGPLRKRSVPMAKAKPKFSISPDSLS
row,EC50,SMILES
1,> 30 µM,"C=Cc1c(-c2ccc(C#N)cc2O)c(=O)oc2cc(F)ccc12 [Compound 11, 44-(7-Fluoro-2-oxo-4-vinyl-2H-chromen-3-yl)-3-hydroxy-benzonitrile]"
2,> 30 µM,"Cc1c(C(=O)c2ccc(Cl)cc2)c(=O)oc2cc(C#N)ccc12 [Compound 3, 3-(4-Chloro-benzoyl)-4-methyl-2-oxo-2H-chromene-7-carbonitrile]"
3,15.9 µM,"N#Cc1ccc2c(CC(=O)c3ccc(Cl)cc3)cc(=O)oc2c1 [Compound 4, 4-[2-(4-Chloro-phenyl)-2-oxo-ethyl]-2-oxo-2H-chromene-7-carbonitrile]"
4,3.29 µM,"C=Cc1c(-c2ccc(O)cc2O)c(=O)oc2cc(C#N)ccc12 [Compound 9, 3-(2,4-Dihydroxy-phenyl)-2-oxo-4-vinyl-2H-chromene-7-carbonitrile]"
5,19.5 µM,"O=c1oc2cc(OS(=O)(=O)C(F)(F)F)ccc2c(CCO)c1-c1ccc(O)cc1O [Compound 7, Trifluoro-methanesulfonic acid 3-(2,4-dihydroxy-phenyl)-4-(2-hydroxy-ethyl)-2-oxo-2H-chromen-7-yl ester]"
6,> 30 µM,"COCCc1c(-c2ccc(OC)cc2OC)c(=O)oc2cc(C#N)ccc12 [Compound 6, 3-(2,4-Dimethoxy-phenyl)-4-(2-methoxy-ethyl)-2-oxo-2H-chromene-7-carbonitrile]"
7,23.2 µM,"N#Cc1ccc2c(CCO)c(-c3ccc(O)cc3O)c(=O)oc2c1 [Compound 8, 3-(2,4-Dihydroxy-phenyl)-4-(2-hydroxy-ethyl)-2-oxo-2H-chromene-7-carbonitrile]"

# Continued, molecule first:
row,SMILES,EC50
1,"N#Cc1ccc2c(CC(=O)Nc3ccccc3Cl)cc(=O)oc2c1 [Compound 17, N-(2-Chloro-phenyl)-2-(7-cyano-2-oxo-2H-chromen-4-yl)-acetamide]",19.5 µM
2,"N#Cc1ccc2c(CC(=O)Nc3ccccc3F)cc(=O)oc2c1 [Compound 16, 2-(7-Cyano-2-oxo-2H-chromen-4-yl)-N-(2-fluoro-phenyl)-acetamide]",3.84 µM
3,"N#Cc1ccc2oc(=O)cc(CC(O)c3ccc(Cl)cc3Cl)c2c1 (stereo not shown) [Compound 20, 4-[2-(2,4-Dichloro-phenyl)-2-hydroxy-ethyl]-2-oxo-2H-chromene-6-carbonitrile]",> 30 µM
4,"N#Cc1ccc2oc(=O)cc(CC(=O)c3cccc(Cl)c3)c2c1 [Compound 21, 4-[2-(3-Chloro-phenyl)-2-oxo-ethyl]-2-oxo-2H-chromene-6-carbonitrile]",> 30 µM
5,"O=c1cc(CC(O)c2ccc(Cl)cc2Cl)c2ccc(OS(=O)(=O)C(F)(F)F)cc2o1 (stereo not shown) [Compound 12, Trifluoro-methanesulfonic acid 4-[2-(2,4-dichloro-phenyl)-2-hydroxy-ethyl]-2-oxo-2H-chromen-7-yl ester]",6.58 µM
6,"COCCc1c(-c2ccc(OC)cc2OC)c(=O)oc2cc(OS(=O)(=O)C(F)(F)F)ccc12 [Compound 2, Trifluoro-methanesulfonic acid 3-(2,4-dimethoxy-phenyl)-4-(2-methoxy-ethyl)-2-oxo-2H-chromen-7-yl ester]",9.55 µM
7,"O=C(Cc1cc(=O)oc2cc(OS(=O)(=O)C(F)(F)F)ccc12)Nc1c(Cl)cc(Cl)cc1Cl [Compound 13, Trifluoro-methanesulfonic acid 2-oxo-4-[(2,4,6-trichloro-phenylcarbamoyl)-methyl]-2H-chromen-7-yl ester]",8.76 µM
8,"N#Cc1ccc2c(CC(O)c3ccc(Cl)cc3Cl)cc(=O)oc2c1 (stereo not shown) [Compound 14, 4-[2-(2,4-Dichloro-phenyl)-2-hydroxy-ethyl]-2-oxo-2H-chromene-7-carbonitrile]",> 30 µM
9,"N#Cc1ccc2c(CC(=O)Nc3cccc(Cl)c3)cc(=O)oc2c1 [Compound 18, N-(3-Chloro-phenyl)-2-(7-cyano-2-oxo-2H-chromen-4-yl)-acetamide]",7.74 µM
10,"O=C(Cc1cc(=O)oc2ccc(OS(=O)(=O)C(F)(F)F)cc12)c1cccc(Cl)c1 [Compound 22, Trifluoro-methanesulfonic acid 4-[2-(3-chloro-phenyl)-2-oxo-ethyl]-2-oxo-2H-chromen-6-yl ester]",19.9 µM
11,"N#Cc1ccc2c(CC(=O)Nc3cccc(Cl)c3Cl)cc(=O)oc2c1 [Compound 19, 2-(7-Cyano-2-oxo-2H-chromen-4-yl)-N-(2,3-dichloro-phenyl)-acetamide]",10.7 µM
12,"N#Cc1ccc2c(CC(=O)Nc3ccc(F)cc3F)cc(=O)oc2c1 [Compound 15, 2-(7-Cyano-2-oxo-2H-chromen-4-yl)-N-(2,4-difluoro-phenyl)-acetamide]",13.9 µM

# Source: patent US8067619B2, “Coumarin derivatives as ion channel openers” (Janssen Pharmaceutica N.V., priority 2005, dated 2011)
